Reference: patent EP0482594A1, “Tylosin derivative and method for preparing the same” (MERCIAN CORPORATION, priority 1990, dated 1992)
Converted amounts (≈) assume the structure as drawn. Read-outs that look alike come from different tables or passages of the source.

Assays:
[1] = test system: ML-resistant strain; assay: Antibacterial activity, agar-dilution method (Mueller Hinton agar); assay type: cell-based, Staphylococcus aureus; details: macrolide resistant strain; for MIC: Staphylococcus aureus, read-out: minimum inhibitory concentrations (MICs)
Description: (§1) Antibacterial activity of the tylosin derivative of the present invention was determined by the agar- dilution method using a Mueller Hinton agar medium (Difco). The results obtained are summarized in Table 1 in which minimum inhibitory concentrations (MICs, ug/ml) are shown. Hereinafter in the specification, Compound A (the compound described in Example 3) is defined as being 4"-O-[(S)-(+)-p-methoxymandeloyl]tylosin represented by the following formula: [drawing 3] wherein R is the same as that defined above; Compound B (the compound described in Example 2) is defined as being 4"-O-[(R)-(-)-p-methoxymandeloyl]tylosin represented by the following formula: [drawing 4] wherein R is the same as that defined above; XV represents 4"-O-[p-methoxyphenylacetyl]tylosin; RKM represents rokitamycin; and EM represents erythromycin.

[2] = test system: Bacillus subtilis ATCC 6633; assay: as above; assay type: cell-based
Description: as §1

[3] = test system: Escherichia coli K12; assay: as above; assay type: cell-based; details: for MIC: read-out: minimum inhibitory concentrations (MICs)
Description: as §1

[4] = test system: Staphylococcus aureus 209P; assay: as above; assay type: cell-based; details: for MIC: read-out: minimum inhibitory concentrations (MICs)
Description: as §1

[5] = test system: Staphylococcus aureus Smith; assay: as above; assay type: cell-based; details: for MIC: read-out: minimum inhibitory concentrations (MICs)
Description: as §1

[6] = test system: Staphylococcus epidermidis ATCC 12228; assay: as above; assay type: cell-based; details: for minimum inhibitory concentrations (MICs): Staphylococcus epidermidis ATCC 12228; for MIC: Staphylococcus epidermidis
Description: as §1

[7] = Stability test using mouse liver homogenate; assay type: in vitro ADME, ICR mouse; details: for Remaining unhydrolyzed substance (%): after being treated with liver homogenate for 60 minutes at 37 C
Description: A liver in collected from an ICR mouse was homogenized by a Potter homogenizer in five times volume of 0.1 M phosphate buffer solution (pH 7.2), and supernatant was obtained by centrifuging the homogenate at 3000 rpm for 10 minutes. To 2 ml of the supernatant obtained above, 2 ml of sample solution containing 500 µg/ml of test compound in 20% aqueous methanol and 1 ml of 0.1 M phosphate buffer solution were added, and the mixture was incubated at 37 ^0 c for 60 minutes and then 1 ml of the mixture was heated at 85 ° C for 3 minutes. The reaction mixture was adjusted to pH 9.0 by adding 1 N NaOH and extracted with 1 ml of ethyl acetate.

[8] = test system: Mouse leukemia L1210 cells; assay: Inhibitory activity on the growth of L1210 cells; assay type: cell-based; details: for IC50: L1210 cell growth
Description: Mouse leukemia L1210 cells were cultured in RPM11640 medium (Gifco) containing 10% horse serum (Gifco) at 37°C under 5% carbon dioxide gas so that the leukemia cells were contained in the amount of 5 x 10^4 cells/ml, and the cells were subjected to passage culture every two or three days to maintain the cell density of 5 x 10^4 cells/ml. The diluted sample solution (0.1 ml) was added to each well of a 24-well plate which contained 0.9 ml of the cultured L1210 cells, and the mixture was incubated at 37 ° C for 48 hours under 5% carbon dioxide gas. The sample solution mentioned above was prepared by dissolving a weighed test compound in dimethyl sulfoxide (DMSO) at the concentration of 100 mg/ml and then diluting the solution with distilled water so that the concentration became 10 mg/ml. The resulting aqueous solution was diluted with phosphate buffer solution to obtain a sample solution at a desired concentration. After incubation, the cell numbers in each well were counted and inhibitory activity on cell growth (ICso) was calculated.

[9] = test system: mouse bone marrow cells; assay: Inhibition of the colony formation of mouse bone marrow cells; assay type: cell-based; details: for Number of colonies Average: 1.0 μg/ml (control average 75.3); for Number of colonies 1: count 1 (control 95); for Number of colonies 2: count 2 (control 66); for activity at 1 µg/mL: Mus musculus, Bone marrow cell
[10] = 1.0 μg/ml, relative to control = 100
[11] = ATCC6633, Bacillus subtilis ATCC 6633, read-out: minimum inhibitory concentrations (MICs)
[12] = ATCC12228, Staphylococcus epidermidis ATCC 12228, read-out: minimum inhibitory concentrations (MICs)

With “4"-O-[p-methoxyphenylacetyl]tylosin [XV]” the “minimum inhibitory concentrations (MICs)” value ([1]; 1st listed (Table 1 r5)) was 6.25 mg/L, the “minimum inhibitory concentrations (MICs)” value ([1]; 2nd listed (Table 1 r6)) was 0.78 mg/L and the “minimum inhibitory concentrations (MICs)” value ([1]; 3rd listed (Table 1 r7)) was 3.13 mg/L. For the same compound, the “minimum inhibitory concentrations (MICs)” value ([1]; 4th listed (Table 1 r8)) was 0.39 mg/L, the “minimum inhibitory concentrations (MICs)” value ([1]; 5th listed (Table 1 r9)) was 1.56 mg/L and the “minimum inhibitory concentrations (MICs)” value ([2]; Bacillus subtilis ATCC 6633) was 0.39 mg/L. For the same compound, the “minimum inhibitory concentrations (MICs)” value [3] was > 100 mg/L, the “minimum inhibitory concentrations (MICs)” value ([4]; Staphylococcus aureus 209P) was 0.20 mg/L and the “minimum inhibitory concentrations (MICs)” value ([5]; Staphylococcus aureus Smith) was 1.56 mg/L. The “minimum inhibitory concentrations (MICs)” value [6] was 0.78 mg/L, the “Remaining unhydrolyzed substance (%)” value [7] was 92.8% and the “Inhibitory activity on cell growth (%)” value ([8]; 1 μg/ml, 48 hours) was 12.22%. For the same compound, the “Inhibitory activity on cell growth (%)” value ([8]; 3 μg/ml, 48 hours) was 31.18%, the “Inhibitory activity on cell growth (%)” value ([8]; 10 μg/ml, 48 hours) was 82.87% and the “Inhibitory activity on cell growth (%)” value ([8]; 30 μg/ml, 48 hours) was 90.45%. For the same compound, the “Inhibitory activity on cell growth (%)” value ([8]; 100 μg/ml, 48 hours) was 93.68%, the IC50 ([8]; 48 hours) was 5.01 mg/L and the “Number of colonies Average” value [9] was 13.0. For the same compound, the “Number of colonies 1” value ([9]; 1.0 μg/ml) was 13 and the “Colony formation (%)” value [9, 10] was 17.3%.

In the case of CCC1OC(=O)CC(O)C(C)C(OC2OC(C)C(OC3CC(C)(O)C(OC(=O)C(O)c4ccc(OC)cc4)C(C)O3)C(N(C)C)C2O)C(CC=O)CC(C)C(=O)C=CC(C)=CC1COC1OC(C)C(O)C(OC)C1OC [Compound B, 4"-O-[(R)-(-)-p-methoxymandeloyl]tylosin], the “minimum inhibitory concentrations (MICs)” value ([1]; 1st listed (Table 1 r5)) is reported as 6.25 mg/L (≈ 5.79 µM), the “minimum inhibitory concentrations (MICs)” value ([1]; 2nd listed (Table 1 r6)) is reported as 0.39 mg/L (≈ 0.361 µM) and the “minimum inhibitory concentrations (MICs)” value ([1]; 3rd listed (Table 1 r7)) is reported as 3.13 mg/L (≈ 2.9 µM). The “minimum inhibitory concentrations (MICs)” value ([1]; 4th listed (Table 1 r8)) was < 0.20 mg/L, the “minimum inhibitory concentrations (MICs)” value ([1]; 5th listed (Table 1 r9)) was 1.56 mg/L (≈ 1.44 µM) and the “minimum inhibitory concentrations (MICs)” value ([2]; Bacillus subtilis ATCC 6633) was 0.39 mg/L (≈ 0.361 µM). For the same compound, the “minimum inhibitory concentrations (MICs)” value [3] was > 100 mg/L, the “minimum inhibitory concentrations (MICs)” value ([4]; Staphylococcus aureus 209P) was 0.39 mg/L (≈ 0.361 µM) and the “minimum inhibitory concentrations (MICs)” value ([5]; Staphylococcus aureus Smith) was 1.56 mg/L (≈ 1.44 µM). The “minimum inhibitory concentrations (MICs)” value [6] was 0.78 mg/L (≈ 0.722 µM), the “Remaining unhydrolyzed substance (%)” value ([7]; 60 min) was 100% and the “Inhibitory activity on cell growth (%)” value ([8]; 1 μg/ml, 48 hours) was 0%. The “Inhibitory activity on cell growth (%)” value ([8]; 3 μg/ml, 48 hours) was 0%, the “Inhibitory activity on cell growth (%)” value ([8]; 10 μg/ml, 48 hours) was 13.48% and the “Inhibitory activity on cell growth (%)” value ([8]; 30 μg/ml, 48 hours) was 41.43%. For the same compound, the “Inhibitory activity on cell growth (%)” value ([8]; 100 μg/ml, 48 hours) was 87.22%, the IC50 ([8]; 48 hours) was 32.99 mg/L (≈ 30.5 µM) and the “Number of colonies Average” value [9] was 29.5. For the same compound, the “Number of colonies 1” value ([9]; 1.0 μg/ml) was 34 and the “Number of colonies 2” value ([9]; 1.0 μg/ml) was 25.

In the case of CCCC(=O)O[C@H]1[C@H](C)O[C@@H](O[C@H]2[C@H](N(C)C)[C@@H](O)[C@H](O[C@H]3[C@@H](CC=O)C[C@@H](C)[C@@H](O)/C=C/C=C/C[C@@H](C)OC(=O)C[C@@H](O)[C@@H]3OC)O[C@@H]2C)C[C@@]1(C)OC(=O)CC [RKM, rokitamycin], the MIC ([1]; 1st listed (Table 1 r5)) is reported as > 100 mg/L, the MIC ([1]; 2nd listed (Table 1 r6)) is reported as > 100 mg/L and the MIC ([1]; 3rd listed (Table 1 r7)) is reported as > 100 mg/L. The MIC ([1]; 4th listed (Table 1 r8)) was < 0.2 mg/L, the MIC ([1]; 5th listed (Table 1 r9)) was > 100 mg/L and the MIC [2, 11] was 0.1 mg/L (≈ 0.121 µM). For the same compound, the MIC [3] was 100 mg/L (≈ 121 µM), the MIC ([4]; Staphylococcus aureus 209P) was 0.2 mg/L (≈ 0.242 µM) and the MIC ([5]; Staphylococcus aureus Smith) was 0.39 mg/L (≈ 0.471 µM). The MIC [6, 12] was < 0.2 mg/L, the “Number of colonies Average” value [9] was 19.0 and the “Number of colonies 3” value ([9]; 1.0 μg/ml, count 3 (control 65)) was 19. For the same compound, the activity at 1 µg/mL [9, 10] was 25.2%.

With CCC1OC(=O)CC(O)C(C)C(OC2OC(C)C(OC3CC(C)(O)C(OC(=O)C(O)c4ccc(OC)cc4)C(C)O3)C(N(C)C)C2O)C(CC=O)CC(C)C(=O)C=CC(C)=CC1COC1OC(C)C(O)C(OC)C1OC [Compound A, 4"-O-[(S)-(+)-p-methoxymandeloyl]tylosin] the MIC ([1]; 1st listed (Table 1 r5)) was 6.25 mg/L (≈ 5.79 µM), the MIC ([1]; 2nd listed (Table 1 r6)) was 0.39 mg/L (≈ 0.361 µM) and the MIC ([1]; 3rd listed (Table 1 r7)) was 6.25 mg/L (≈ 5.79 µM). For the same compound, the MIC ([1]; 4th listed (Table 1 r8)) was < 0.2 mg/L, the “minimum inhibitory concentrations (MICs)” value ([1]; 5th listed (Table 1 r9)) was 6.25 mg/L (≈ 5.79 µM) and the MIC [2, 11] was 0.39 mg/L (≈ 0.361 µM). For the same compound, the MIC [3] was > 100 mg/L, the MIC ([4]; Staphylococcus aureus 209P) was 0.39 mg/L (≈ 0.361 µM) and the MIC ([5]; Staphylococcus aureus Smith) was 1.56 mg/L (≈ 1.44 µM). The MIC [6, 12] was 0.39 mg/L (≈ 0.361 µM), the remaining at 1 h ([7]; mouse, liver homogenate, pH 7.2, after being treated with liver homogenate for 60 minutes at 37 C, read-out: Remaining unhydrolyzed substance (%)) was 97.8% and the “Inhibitory activity on cell growth (%)” value ([8]; 10 μg/ml, 48 hours) was 5.62%. For the same compound, the inhibition at 1 µg/mL ([8]; Mus musculus, L1210, 48 h, 1 μg/ml, read-out: Inhibitory activity on cell growth (%)) was 0%, the inhibition at 3 µg/mL ([8]; Mus musculus, L1210, 48 h, 3 μg/ml, read-out: Inhibitory activity on cell growth (%)) was 0% and the inhibition at 30 µg/mL ([8]; Mus musculus, L1210, 48 h, 30 μg/ml, read-out: Inhibitory activity on cell growth (%)) was 47.8%. For the same compound, the inhibition at 100 µg/mL ([8]; Mus musculus, L1210, 48 h, 100 μg/ml, read-out: Inhibitory activity on cell growth (%)) was 88.8%, the IC50 ([8]; Mus musculus, L1210, 48 h, read-out: IC50) was 36.6 mg/L (≈ 33.9 µM) and the “Number of colonies Average” value [9] was 31.0. For the same compound, the “Number of colonies 1” value ([9]; 1.0 μg/ml) was 32, the “Number of colonies 2” value ([9]; 1.0 μg/ml) was 30 and the activity at 1 µg/mL [9, 10] was 41.2%.

For CC[C@H]1OC(=O)[C@H](C)[C@@H](O[C@H]2C[C@@](C)(OC)[C@@H](O)[C@H](C)O2)[C@H](C)[C@@H](O[C@@H]2O[C@H](C)C[C@H](N(C)C)[C@H]2O)[C@](C)(O)C[C@@H](C)C(=O)[C@H](C)[C@@H](O)[C@]1(C)O [EM, erythromycin], the MIC ([1]; 1st listed (Table 1 r5)) was > 100 mg/L, the MIC ([1]; 2nd listed (Table 1 r6)) was > 100 mg/L and the MIC ([1]; 3rd listed (Table 1 r7)) was > 100 mg/L. For the same compound, the MIC ([1]; 4th listed (Table 1 r8)) was > 100 mg/L, the MIC ([1]; 5th listed (Table 1 r9)) was > 100 mg/L and the MIC ([2]; Bacillus subtilis, ATCC6633, read-out: minimum inhibitory concentrations (MICs)) was 0.1 mg/L (≈ 0.136 µM). For the same compound, the MIC [3] was 50 mg/L (≈ 68.1 µM), the MIC ([4]; Staphylococcus aureus, 209P) was 0.1 mg/L (≈ 0.136 µM) and the MIC ([5]; Staphylococcus aureus) was 0.2 mg/L (≈ 0.273 µM). The MIC ([6]; ATCC12228, read-out: minimum inhibitory concentrations (MICs)) was < 0.2 mg/L.
